Source: patent US9585880B2, “Cyclic amino compounds for use in the treatment of cardiac disorders” (Universitetet I Oslo, priority 2013, dated 2017)
Structures can show the parent of a compound that is named as a salt.

What follows are compounds tested against AKAP18δ-PLB interaction (UniProt P26678+Q6JP77) (assay: AlphaScreen binding assay of the GST-AKAP18δ : PLB-biotin interaction). Settings: compound library screen; Table 1 compounds similar to those of formula (I); read-out: EC50.
Protocol: Stable and optimal assay conditions were determined by cross-titrating GST-AKAP186 and biotinylated PLB using 10 μg/ml glutathione acceptor beads and 10 μg/ml streptavidin donor beads in an AlphaScreen assay. The excitation wavelength was 680 nm, with the emission wavelength being 520-560 nm. Signal intensity in each well was registered and the optimal concentration to use was chosen to be the concentration prior to the peak of the signal.
Concentrations to give a reliable signal were determined to be between 2 and 16 nM for AKAP18δ-GST and 4 and 20 nM PLB-biotin for relevant preparations of protein, for example 4 nM and 20 nM, respectively.
compound library was screened with the above assay.
The compounds of Examples 2-10 were tested for pharmacological activity using the Binding Assay described above. The compounds of Examples 2-10 were dissolved in DMSO to a concentration of 10 mM, diluted in aqueous solution and tested for their ability to disrupt the AKAP18δ-PLB interaction at different concentrations in the AlphaScreen binding assay as described above.
Signal intensity was recorded at each concentration of compound. Maximal signal representing full interaction between AKAP186 and PLB at 0 μM compound was set to 100% and loss of signal (due to compound disruption of the protein-protein interaction) plotted against log [conc compound] and curves fitted in SigmaPlot (see FIGS. 2a-2i).

Chain of AKAP18δ-PLB interaction (Q6JP77 whole entry): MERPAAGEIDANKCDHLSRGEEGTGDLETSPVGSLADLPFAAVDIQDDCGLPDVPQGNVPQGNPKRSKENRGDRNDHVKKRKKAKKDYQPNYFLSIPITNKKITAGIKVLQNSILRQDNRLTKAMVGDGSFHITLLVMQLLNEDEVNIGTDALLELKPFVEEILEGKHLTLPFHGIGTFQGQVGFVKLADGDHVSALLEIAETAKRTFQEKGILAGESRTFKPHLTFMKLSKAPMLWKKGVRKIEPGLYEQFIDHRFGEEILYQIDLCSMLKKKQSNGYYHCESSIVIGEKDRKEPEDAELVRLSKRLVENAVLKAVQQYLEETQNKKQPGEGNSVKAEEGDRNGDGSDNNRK
Chain of AKAP18δ-PLB interaction (P26678 whole entry): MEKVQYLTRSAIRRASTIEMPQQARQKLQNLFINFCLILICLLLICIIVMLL

Row | EC50 | SMILES
1 | 0.002 mM | CN(C)c1ccc(CN(Cc2ccccc2)Cc2ccc(N(C)C)cc2)cc1
2 | 0.0093 mM | O=C(Nc1ccc(F)cc1)Nc1ccc(CN(Cc2ccccc2)Cc2ccc(NC(=O)Nc3ccc(F)cc3)cc2)cc1
3 | 0.216 mM | O=C(O)c1csc(CN(Cc2cccc(C(F)(F)F)c2)Cc2ccccc2F)n1
4 | 0.0052 mM | Cc1ccc(NC(=O)Nc2ccc(CN(Cc3ccc(NC(=O)Nc4ccc(C)cc4)cc3)Cc3ccc(NC(=O)Nc4ccc(C)cc4)cc3)cc2)cc1
5 | 0.0038 mM | Nc1ccc(CN(Cc2ccccc2)Cc2ccc(N)cc2)cc1
6 | 0.0416 mM | CC(C)(C)c1ccc(CN(Cc2ccc(F)cc2)Cc2nc(C(=O)O)cs2)cc1
7 | 0.0943 mM | O=C(O)c1csc(CN(Cc2ccc(F)cc2)Cc2ccc(Cl)cc2)n1
8 | 0.0106 mM | O=C(O)c1csc(CN(CCC(c2ccccc2)c2ccccc2)Cc2ccccc2F)n1
9 | 0.0354 mM | Cc1ccc(CN(CCC(c2ccccc2)c2ccccc2)Cc2nc(C(=O)O)cs2)cc1
10 | 0.0222 mM | Nc1ccc(CN(Cc2ccc(N)cc2)Cc2ccc(N)cc2)cc1
11 | 0.0211 mM | CC(C)(C)c1ccc(CN(CCC(c2ccccc2)c2ccccc2)Cc2nc(C(=O)O)cs2)cc1
12 | 0.137 mM | Cc1ccc(CN(Cc2ccc(F)cc2)Cc2nc(C(=O)O)cs2)cc1
13 | 0.0075 mM | O=[N+]([O-])c1ccc(CN(Cc2ccccc2)Cc2ccc([N+](=O)[O-])cc2)cc1
14 | 0.018 mM | O=C(O)c1csc(CN(CCC(c2ccccc2)c2ccccc2)Cc2ccc(F)cc2)n1
15 | 0.0256 mM | COc1ccc(CN(Cc2ccc(F)cc2)Cc2nc(C(=O)O)cs2)cc1
16 | 0.0983 mM | Cc1ccc(CN(Cc2cccc(C(F)(F)F)c2)Cc2nc(C(=O)O)cs2)cc1
17 | 0.0036 mM | O=C(Nc1ccccc1)Nc1ccc(CN(Cc2ccccc2)Cc2ccc(NC(=O)Nc3ccccc3)cc2)cc1
18 | 0.0364 mM | O=C(O)c1csc(CN(Cc2ccc(F)cc2)Cc2cccc(Cl)c2)n1
19 | 0.0395 mM | O=C(O)c1csc(CN(Cc2ccc(F)cc2)Cc2ccc(OCc3ccccc3)cc2)n1
20 | 0.0605 mM | O=C(O)c1csc(CN(Cc2ccc(F)cc2)Cc2cccc(C(F)(F)F)c2)n1
21 | 0.0029 mM | CCN(CC)c1ccc(CN(Cc2ccccc2)Cc2ccc(N(CC)CC)cc2)cc1
22 | 0.0296 mM | O=C(O)c1ccc(CN(Cc2ccccc2)Cc2ccc(C(=O)O)cc2)cc1
23 | 0.0025 mM | Cc1ccc(NC(=O)Nc2ccc(CN(Cc3ccccc3)Cc3ccc(NC(=O)Nc4ccc(C)cc4)cc3)cc2)cc1

Same assay, conditions: half-maximal disruption of AKAP18δ-PLB signal; compounds of Examples 2-10; read-out: EC50

Row | EC50 | SMILES
24 | 0.0715 mM | O=[N+]([O-])c1ccc(CN2CCc3ccccc3C2)cc1 [Compound 6, N-4-nitro-benzyl-1,2,3,4-tetrahydroisoquinoline]
25 | 0.207 mM | c1ccc(CN2Cc3ccccc3C2)cc1 [Compound 7, N-benzyl-isoindoline hydrochloride salt]
26 | 0.0645 mM | Brc1ccc(CN2CCc3ccccc3C2)cc1 [Compound 5, N-4-bromo-benzyl-1,2,3,4-tetrahydroisoquinoline hydrochloride salt]
27 | 0.0553 mM | CC(C)(C)c1ccc(CN2CCc3ccccc3C2)cc1 [Compound 3, N-4-t-butyl-benzyl-1,2,3,4-tetrahydroisoquinoline hydrochloride salt]
28 | 0.0718 mM | c1ccc2c(c1)CN(Cc1ccncc1)C2 [Compound 8, N-4-methylpyridyl-isoindoline]
29 | 0.142 mM | Cc1ccc(CN2CCc3ccccc3C2)cc1 [Compound 2, N-4-methyl-benzyl-1,2,3,4-tetrahydroisoquinoline]

Same assay, conditions: half-maximal disruption of AKAP18δ-PLB signal; compounds of Examples 2-10; value in mM

Row | EC50 | SMILES
30 | single-digit | Cl.c1ccc(CN2CCc3ccccc3C2)cc1 [Compound 4, N-4-benzyl-1,2,3,4-tetrahydroisoquinoline hydrochloride salt]

Same assay, conditions: half-maximal disruption of AKAP18δ-PLB signal; compounds of Examples 2-10; value in mM; read-out: EC50

Row | EC50 | SMILES
31 | 6.5 mM | Cl.c1ccc(CN2CCc3ccccc3C2)cc1 [Compound 4, N-4-benzyl-1,2,3,4-tetrahydroisoquinoline hydrochloride salt]
